The text below walks through data of US20100197600A1, “USE OF THE PEPTIDE HIS-SER-LEU-GLY-LYS-TRP-LEU-GLY-HIS-PRO-ASP-LYS-PHE ALONE OR IN COMBINATION WITH THE PEPTIDE PRO-GLY-THR-CYS-GLU-ILE-CYS-ALA-TYR-ALA-ALA-CYS-THR-GLY-CYS-OH AS A THERAPEUTIC AGENT” (priority 2007, published 2010).

No end group written: not given here.

One assay has as its system HIV-1IIIB. The assay is described as follows: HIV-1 antiviral (cytopathic effect) assay in CEM-SS cells. The settings on record: for antiviral activity of positive control compounds: HIV-1IIIB in CEM-SS cells; for reduction of the cytopathic effect (CPE) in HIV-1 infected CEM-SS cells: 10 micrograms per ml, HIV-1IIIB, MTS readout. For orientation: Protection from cytopathic effect is a common read-out in antiviral testing.

For a further assay, the system named is HCMV strain AD169. Kind of assay: HCMV plaque formation assay in MRC-5 cells. The settings on record: for inhibition of HCMV plaque formation as compared to the virus control experiment: 10 micrograms per ml, MRC-5 cells, 7-10 days.
In assay [1] the test system is hepatitis B virus (HBV) ayw strain. The assay is described as follows: HBV experimental assay system (secreted HBV DNA, TaqMan PCR). The assay is classed as cell-based. The settings on record: 10 micrograms per ml; HepG2-2.2.15 cells; HBV DNA after six days. On the technique in general: Quantitative PCR measures a nucleic acid by following its amplification.
For the next assay, the system named is murine spleen cells. Kind of assay: Th1/Th2 cytokine profiling assay. Format: cell-based, mouse. The settings on record: 10 micrograms per ml; Ovalbumin-restimulated murine spleen cells; 72 hours.
Assay [2] has as its system Primary Human endothelial cells (HUVEC). The assay is described as follows: Endothelial cell migration assay. The settings on record: 10 micrograms per ml, 22 hours. The assay is classed as cell-based.
In a further assay the test system is HUVEC. The assay is described as follows: Endothelial tube formation assay. Format: cell-based, human. The settings on record: 10 micrograms per ml, 20 hours. The text has this:
Positive control wes vehicle only.

For the next assay, the system named is Streptococcus pneumoniae. Kind of assay: Streptococcus pneumoniae assay. The settings on record: 10 micrograms per ml; visual reading.

On to `Cc1cn([C@H]2C[C@H](N=[N+]=[N-])[C@@H](CO)O2)c(=O)[nH]c1=O` [AZT, zidovudine, reference compound], for which the “antiviral activity of positive control compounds” value with HIV-1IIIB is given as “expected levels of antiviral activity”.
Take `Nc1nc(O)c2ncn(COC(CO)CO)c2n1` [Ganciclovir, reference compound]: the “antiviral activity of positive control compound” value in the assay on HCMV strain AD169 (positive control, HCMV in MRC-5 cells) is recorded as “expected levels of antiviral activity”.
As to `CC(C)(C)NC(=O)[C@@H]1CN(Cc2cccnc2)CCN1C[C@@H](O)C[C@@H](Cc1ccccc1)C(=O)N[C@H]1c2ccccc2C[C@H]1O` [indinavir, reference compound], the “antiviral activity of positive control compounds” value in the assay with HIV-1IIIB was “expected levels of antiviral activity”.
“His-Ser-Leu-Gly-Lys-Trp-Leu-Gly-His-Pro-Asp-Lys-Phe (HSLGKWLGHPDKF; printed: His-Ser-Leu-Gly-Lys-Trp-Leu-Gly-His-Pro-Asp-Lys-Phe) [Peptide 1]”: in assay [1], the “inhibition of HBV replication as compared to the virus control infection” value was determined as 43.4%. In the assay on murine spleen cells, the “change of the production of IL-5” value was “did not significantly change”, the “decrease of the production of IFN-γ” value is reported as “did not significantly change”, the “increase (induction) of the production of TNF-α” value was found to be 21.2% and the “increase of the production of IL-2” value amounted to 106.5%. Besides, the “increase of the production of IL-4” value in the assay with murine spleen cells is reported as 117.8%. In addition, the “inhibition of the migration of human endothelial cells” value in assay [2] was determined as 12%. Further, the “inhibition of the tube formation of human endothelial cells” value in the assay on HUVEC is listed as 10%. The “inhibition of the growth of Streptococcus pneumoniae” value in the assay with Streptococcus pneumoniae is on record as 100%. In addition, the “inhibition of HCMV plaque formation as compared to the virus control experiment” value in the assay with HCMV strain AD169 is listed as “did not inhibit”. The “reduction of the cytopathic effect (CPE) in HIV-1 infected CEM-SS cells” value with HIV-1IIIB was 43.9%.
With “Pro-Gly-Thr-Cys-Glu-Ile-Cys-Ala-Tyr-Ala-Ala-Cys-Thr-Gly-Cys-OH (PGTCEICAYAACTGC-OH; cysteine pairing not given here) [Peptide 2]”, the “inhibition of HBV replication as compared to the virus control infection” value in assay [1] came out at 21.7%. Besides, in the assay on murine spleen cells, the “change of the production of IL-5” value was “did not significantly change”, the “decrease of the production of IFN-γ” value was found to be 38%, the “increase (induction) of the production of TNF-α” value is “did not significantly change” and the “increase of the production of IL-2” value came out at 35.5%. Also, the “increase of the production of IL-4” value in the assay on murine spleen cells turned out to be 43.8%. In assay [2], the “inhibition of the migration of human endothelial cells” value was 24%. Further, the “inhibition of the tube formation of human endothelial cells” value in the assay on HUVEC came to 10%. In addition, in the assay on Streptococcus pneumoniae, the “inhibition of the growth of Streptococcus pneumoniae” value is listed as “no effect”. For the same compound, the “inhibition of HCMV plaque formation as compared to the virus control experiment” value in the assay on HCMV strain AD169 is recorded as “did not inhibit”. Further, in the assay with HIV-1IIIB, the “reduction of the cytopathic effect (CPE) in HIV-1 infected CEM-SS cells” value is listed as 13.2%.
